Measured values: patent publication US20220265785A1, “COMPOSITION FOR PREVENTING OR TREATING URIC ACID-RELATED DISEASE” (GUANGZHOU CENTURY CLINICAL RESEARCH CO., LTD, priority 2019, published 2022)

How the values were obtained:
[1] = system: patient with hyperuricemia accompanied by gout; assay: Lysozyme enteric tablets in patient with hyperuricemia accompanied by gout; assay type: in vivo, human; settings: same patient before lysozyme; serum uric acid remained at 700 μmol/L or more
Description: The administration of lysozyme enteric tablets (produced by Xiangbei Welman Pharmaceutical Co., Ltd.) by two patients with hyperuricemia is described below to specifically illustrate the present disclosure.
A person suffering from gout had obvious redness, swelling and pain in the ankles and toes, and difficulty in walking. […] The lysozyme enteric tablets were tried daily (once in the morning, once at noon and once in the evening, 2 g each time). One month later, they felt that the frequency of pain episodes decreased and the difficulty in walking was alleviated.

[2] = system: hyperuricemia model animals; assay: Effect on serum uric acid level of hyperuricemia model rats (potassium oxonate + uric acid); assay type: in vivo, SD rats; settings: for Serum uric acid content, Day 0: Day 0, before modeling and before drug, 8 rats; for Serum uric acid content, Day 0 / Serum uric acid content, Day 12 / Serum uric acid content, Day 18: X ± SD; for Serum uric acid content, Day 12: Day 12, after modeling, before drug (dosing from D13)
Description: (§1) Lysozyme granules, enteric lysozyme granules, and benzbromarone fine granules. Each test drug was moistened and uniformly mixed with 0.5% sodium carboxymethylcellulose for easy administration.
(§2) SD rats. The rats had free access to drinking water and food, and they were adaptively reared for one week before test.
(§3) Except for rats in the blank group, the other rats were modeled for 12 days, and the serum uric acid level of each rat was detected. Then the rats were evenly divided into groups according to the uric acid level of each rat, with 8 animals in each group.
(§4) Lysozyme groups and enteric lysozyme groups: High and low doses of the lysozyme granules and enteric lysozyme granules were respectively taken orally, and the dosages were 10 mg/kg and 30 mg/kg based on the active ingredient, once a day.
(§5) Benzbromarone group: The benzbromarone fine granules were taken orally at a dose of 30 mg/kg based on the active ingredient, once a day.
(§6) The test was carried out for a total of 18 days.
(§7) On day 1 of the test, except for the animals in the blank group, the animals in the other groups were orally given a modeling agent (1.5 g/kg potassium oxonate +0.3 g/kg uric acid, dissolved in 0.5% sodium carboxymethylcellulose) once to start modeling, and thereafter, the same amount of the modeling agent was administrated at the same time every day. 0.5 ml of blood was taken from the orbit before the start of the test (DO) and on day 12
(§8) (D12) of the test, respectively, and centrifuged, then the serum was taken and tested for serum uric acid level using a uric acid assay kit and a microplate reader; in addition, 0.5 g of fresh midsection rat feces were taken, diluted and uniformly mixed with four times volume of phosphate buffer, centrifuged, ultrasonically mixed until uniform, incubated at 100° C. for 40 minutes, cooled and then centrifuged, and the supernatant was taken and tested for fecal uric acid level using the uric acid assay kit and the microplate reader.
(§9) Thereafter, the rats were grouped according to the serum uric acid value of each rat. From day 13 (D13), each rat was given the test drug intragastrically every day, as well as the modeling agent every day. The interval between the administration of the test drug and the administration of the modeling agent was more than 1 hour. The drug administration was stopped after day 18 (D18) of the test, and the serum uric acid levels and fecal uric acid levels were determined according to the previous method.

[3] = system: hyperuricemia model animals; assay: Effect on fecal uric acid level of hyperuricemia model rats (potassium oxonate + uric acid); assay type: in vivo, SD rats; settings: for Fecal uric acid content, Day 0: Day 0, before modeling and before drug; for Fecal uric acid content, Day 0 / Fecal uric acid content, Day 12 / Fecal uric acid content, Day 18: X ± SD; for Fecal uric acid content, Day 12: Day 12, after modeling, before drug; for Fecal uric acid levels compared with the model control group: day 18
Description: as §1, §2, §3, §4, §5, §6, §7, §8, §9

[4] = 10 mg/kg oral once a day D13-D18
[5] = 30 mg/kg oral once a day D13-D18

Row | Molecule | Effects of past use to relieve pain and reduce uric acid [1] | Serum uric acid content, Day 0 ([2]; 10 mg/kg group) | Serum uric acid content, Day 12 ([2]; 10 mg/kg group) | Serum uric acid content, Day 18 [2, 4] | Serum uric acid content, Day 0 ([2]; 30 mg/kg group) | Serum uric acid content, Day 12 ([2]; 30 mg/kg group) | Serum uric acid content, Day 18 [2, 5] | Serum uric acid levels compared with the model control group ([2]; day 18) | Fecal uric acid content, Day 0 ([3]; 10 mg/kg group) | Fecal uric acid content, Day 12 ([3]; 10 mg/kg group) | Fecal uric acid content, Day 18 [3, 4] | Fecal uric acid content, Day 0 ([3]; 30 mg/kg group) | Fecal uric acid content, Day 12 ([3]; 30 mg/kg group) | Fecal uric acid content, Day 18 [3, 5] | Fecal uric acid levels compared with the model control group [3]
1 | CC(C)Cc1ccc(C(C)C(=O)O)cc1 (centres unmarked) [ibuprofen] | not good | – | – | – | – | – | – | – | – | – | – | – | – | – | –
2 | Lysozyme: Homemade granules: lysozyme with a potency of more than 20000 U/mg mixed with the same amount of starch, granulated with water | – | 43.66 ± 4.16 µmol/L | 122.12 ± 10.27 µmol/L | 161.97 ± 22.11 µmol/L | 40.49 ± 3.33 µmol/L | 120.79 ± 17.64 µmol/L | 149.76 ± 20.12 µmol/L | significantly lower | 0.98 ± 0.13 mmol/L | 1.26 ± 0.24 mmol/L | 1.84 ± 0.20 mmol/L | 1.15 ± 0.16 mmol/L | 1.24 ± 0.20 mmol/L | 1.98 ± 0.20 mmol/L | significantly higher
3 | CCc1oc2ccccc2c1C(=O)c1cc(Br)c(O)c(Br)c1 [Benzbromarone, reference compound] | – | – | – | – | 41.02 ± 3.71 µmol/L | 117.14 ± 17.74 µmol/L | 153.45 ± 26.17 µmol/L | – | – | – | – | 1.12 ± 0.17 mmol/L | 1.25 ± 0.31 mmol/L | 1.34 ± 0.31 mmol/L | did not increase significantly
4 | Oc1ncnc2[nH]ncc12 [allopurinol] | not good | – | – | – | – | – | – | – | – | – | – | – | – | – | –
